Literature values, collected in US12029226B2, “Concentrate for preparing a drinkable solution (II)” (Alzchem Trostberg GmbH, priority 2019, dated 2024).

Details: literature value

Compound	pKs value
O=CO [formic acid]	3.77
CC(O)C(=O)O (centres unmarked) [lactic acid]	3.90+/−0.11
